Laboratory results taken from US11020405B2, “Method for prevention or treatment of diabetic complications” (KANGWON NATIONAL UNIVERSITY UNIVERSITY-INDUSTRY COOPERATION …, priority 2017, dated 2021).

Key:
[1] = system: VE-cadherin; assay: Analysis of adherens junction (VE-cadherin staining); format: cell-based, human; conditions: HRECs, 10 ng/mL VEGF 90 min with 20 μM midazolam, 5 μM BAPTA-AM, 1 mM NAC, 0.5 μM Trolox, 50 μM cystamine or 20 μM MDC (FIGS. 5, 6)
Description: Purchased from Applied Cell Biology Research Institute (Cell Systems, Kirkland, Wash.), human retinal endothelial cells (HRECs) were cultured in an M19 medium, containing 20% FBS, 3 ng/mL bFGF, 5 U/mL heparin, 100 U/mL penicillin and […], in a 2% gelatin-coated plate.
Before the following Test Examples 2 to 7, the HRECs were cultured for 6 hr in a medium containing 1% FBS and an antibiotic agent, thus preparing HRECs of Test Example 1.
The HRECs of Test Example 1 were subjected to the respective treatments below and cultured for 30 min. Here, treatment with 10 ng/mL VEGF was performed for 90 min. Thereafter, the HRECs were treated with 1 mM 5-(biotinamido)pentylamine, incubated for 1 hr, fixed with 3.7% formaldehyde, treated with 0.2% triton X-100, treated with a blocking solution containing 138 mM NaCl, 0.1% Tween 20 and 2% BSA dissolved in a 20 mM Tris (pH 7.6) buffer, incubated for 30 min, incubated with a monoclonal VE-cadherin antibody (1:200; Santa Cruz Biotechnology) for 12 hr or more (overnight), incubated with a FITC-conjugated goat anti-mouse antibody (1:200; Sigma-Aldrich), and then measured using confocal microscopy. Some (the following i), iii), iv), vi), ix)) of the results are shown in FIG. 5 and the VE-cadherin concentrations in the portions represented by the dotted lines in FIG. 5 are shown in FIG. 6. With reference to FIG. 6, 10 randomly selected cells were measured to determine the fluorescence intensity of single cells and thus quantify VE-cadherin.
VE-cadherin, which is a protein that mediates adherens junction, was analyzed to evaluate adherens junction.

[2] = system: lungs of diabetic mice; assay: Hyperglycemia-induced pulmonary vascular leakage in diabetic mice (FITC-dextran); format: in vivo, C57BL/6 mice; conditions: 10 mg/kg midazolam intraperitoneal daily for 2 days (FIG. 21)
Description: FIGS. 21A and 21B show the preventive effects of midazolam against hyperglycemia-induced pulmonary vascular leakage in diabetic mice. Six-week-old male C57BL/6 mice were administered with streptozotocin (150 mg/kg body weight) to give diabetic mouse models. Two weeks after streptozotocin injection, diabetic mice were administered 10 mg/kg midazolam by intraperitoneal injection daily for 2 days, and vascular leakage was investigated. The body weight of mice were measure in normal (19.9±0.3 g), diabetic (17.7±0.3 g), and midazolam supplemented diabetic mice (17.6±0.3 g). Blood glucose levels were also monitored in normal (123.5±6.5 mg/dL), diabetic (505.0±89.0 mg/dL), and midazolam supplemented diabetic mice (500.3±63.3 mg/dL). The mice were anesthetized with 3% isoflurane, and 1.25 mg of FITC-dextran was injected into the right ventricle of each mouse and allowed to circulate for 5 min. The lungs were dissected, fixed, and embedded in OCT compound. Cryosections of lungs were stained with isolectin B4 and DAPI. Representative images of vascular leakage in lungs are shown in additional FIG. 21A. Scale bars, 100 μm. The results of vascular leakage quantitatively analyzed by measuring the fluorescence intensity of FITC-dextran in the lungs are shown in additional FIG. 21B (n=4 for normal and diabetic, n=6 for diabetic+Midazolam).

[3] = system: TGase; assay: Analysis of TGase activity in retinas of diabetic mouse model; format: in vivo, C57BL/6 mice; conditions: intravitreal 2 μL of 2 mM midazolam, 2 μM cystamine or 500 mM MDC (FIGS. 14, 15)
Description: 6-week-old male C57BL/6 mice (DBL, EumSeong, Korea) were administered with streptozotocin (Sigma-Aldrich) dissolved in a 100 mM citrate buffer (pH 4.5) through intraperitoneal injection in an amount of 150 mg each per kg of mouse weight to give diabetic mouse models. In the diabetic mouse models, the blood glucose level was 19 mM or more when not fasting, and polyuria and diabetes, considered signs of diabetes, were observed. […]
48 μL of 100 mM 5-(biotinamido)pentylamine was injected into the left ventricle of each of normal mice (Normal), midazolam-administered normal mice (Midazolam), diabetic mice (Diabetic), midazolam-administered diabetic mice (Diabetic+Midazolam), flumazenil- and midazolam-administered diabetic mice (Diabetic+flumazenil+Midazolam), cystamine-administered diabetic mice (Diabetic+cystamine) and MDC-administered diabetic mice (Diabetic+MDC) and circulated for 10 min, after which cervical dislocation was performed, and the eyeballs were extracted, fixed with 4% paraformaldehyde for 45 min, incised and subjected to permeation treatment for 30 min. The obtained retinal samples were incubated with a blocking solution for 30 min, treated with FITC-conjugated streptavidin (1:200, v/v), stained for 1 hr, and measured using confocal microscopy. […]

[4] = system: human retinal endothelial cells (HRECs); assay: Identification of receptor of midazolam through ROS concentration analysis; format: cell-based
Description: With reference to FIG. 10A, the HRECs of Test Example 1 were subjected to the respective treatments below, cultured for 10 min, treated with 10 μM H2DCFDA, stained for 10 min in a phenol-red-free low-serum medium, and measured using confocal microscopy to thus determine the fluorescence intensity of single cells.
As will be described below, flumazenil was used as a GABAA receptor antagonist and PK11195 was used as a TSOP receptor antagonist.
With reference to FIG. 10B, the HRECs of Test Example 1 were treated with 0 μM, 0.01 μM, 0.1 μM, 1 μM, 10 μM, 20 μM, and 50 μM flumazenil and 0 μM, 0.01 μM, 0.1 μM, 1 μM, 3 μM, 10 μM, and 30 μM PK11195, cultured for 1 hr, treated with 20 μM midazolam, cultured for 30 min, treated with 10 ng/ml VEGF, incubated for 10 min, treated with 10 μM H2DCFDA, stained for 10 min in a phenol-red-free low-serum medium, and then measured using confocal microscopy to thus determine the fluorescence intensity of single cells.

SMILES: Cc1ncc2n1-c1ccc(Cl)cc1C(c1ccccc1F)=NC2 [midazolam]
- VE-cadherin concentration / adherens junction disruption due to VEGF [1]: exhibited the effect of preventing the adherens junction disruption due to VEGF
- pulmonary vascular leakage (FITC-dextran extravasation) [2]: blocked by midazolam administration
- TGase activity in retina compared to normal mice [3]: an increase in TGase activation was suppressed
- ROS concentration (VEGF-induced) compared to control ([4]; 20 μM midazolam 10 min then 10 ng/ml VEGF, no washing (FIG. 10A)): no significant ROS concentration increase was observed
- ROS concentration (VEGF-induced, after washing) ([4]; 20 μM midazolam 30 min, washing with serum-free medium, then 10 ng/ml VEGF (FIG. 10A)): ROS concentration was increased
